Reference: ChEMBL document CHEMBL1141488, “Modifying the glycosidic linkage in digitoxin analogs provides selective cytotoxins” (Bioorg Med Chem Lett, 2008)
pIC50: −log10 of the molar value.

What was measured:
[1] = test system: NCI/ADR-RES; test: Cytotoxicity against human NCI/ADR-RES cells; assay type: functional, cell-based
[2] = test system: HT-29; test: Cytotoxicity against human HT29 cells; assay type: functional, cell-based

SMILES	pIC50 [1]	pIC50 [2]
CC(C)ON(OC1OC[C@H](O)[C@H](O)[C@@H]1O)[C@H]1CC[C@@]2(C)[C@H](CC[C@@H]3[C@@H]2CC[C@]2(C)[C@@H](C4=CC(=O)OC4)CC[C@]32O)C1 (stereo partly drawn)	6.96	
C[C@]12CC[C@H](N(OCc3ccccc3)OC3OC[C@H](O)[C@@H](O)[C@@H]3O)C[C@H]1CC[C@@H]1[C@@H]2CC[C@]2(C)[C@@H](C3=CC(=O)OC3)CC[C@]12O (stereo partly drawn)		< 6.00
CC(C)ON(OC1OC[C@H](O)[C@@H](O)[C@@H]1O)[C@H]1CC[C@@]2(C)[C@H](CC[C@@H]3[C@@H]2CC[C@]2(C)[C@@H](C4=CC(=O)OC4)CC[C@]32O)C1 (stereo partly drawn)	6.92	
